Test [1] addresses T1, hERG (Kv11.1) (Homo sapiens, UniProt Q12809).
T1 construct: gene KCNH2
In words: whole-cell patch clamp of I Kr tail current in hiPSC-CMs. The format is cell-based.

In test [2] the target is T1, hERG (Kv11.1). In words: whole-cell patch clamp: hERG-HEK293 cells ([…]) and I Kr in hiPSC-CMs (IC50). It counts as cell-based. (The patch-clamp technique gives a direct electrical read-out from membranes.)

T1 sequence (Q12809 whole entry): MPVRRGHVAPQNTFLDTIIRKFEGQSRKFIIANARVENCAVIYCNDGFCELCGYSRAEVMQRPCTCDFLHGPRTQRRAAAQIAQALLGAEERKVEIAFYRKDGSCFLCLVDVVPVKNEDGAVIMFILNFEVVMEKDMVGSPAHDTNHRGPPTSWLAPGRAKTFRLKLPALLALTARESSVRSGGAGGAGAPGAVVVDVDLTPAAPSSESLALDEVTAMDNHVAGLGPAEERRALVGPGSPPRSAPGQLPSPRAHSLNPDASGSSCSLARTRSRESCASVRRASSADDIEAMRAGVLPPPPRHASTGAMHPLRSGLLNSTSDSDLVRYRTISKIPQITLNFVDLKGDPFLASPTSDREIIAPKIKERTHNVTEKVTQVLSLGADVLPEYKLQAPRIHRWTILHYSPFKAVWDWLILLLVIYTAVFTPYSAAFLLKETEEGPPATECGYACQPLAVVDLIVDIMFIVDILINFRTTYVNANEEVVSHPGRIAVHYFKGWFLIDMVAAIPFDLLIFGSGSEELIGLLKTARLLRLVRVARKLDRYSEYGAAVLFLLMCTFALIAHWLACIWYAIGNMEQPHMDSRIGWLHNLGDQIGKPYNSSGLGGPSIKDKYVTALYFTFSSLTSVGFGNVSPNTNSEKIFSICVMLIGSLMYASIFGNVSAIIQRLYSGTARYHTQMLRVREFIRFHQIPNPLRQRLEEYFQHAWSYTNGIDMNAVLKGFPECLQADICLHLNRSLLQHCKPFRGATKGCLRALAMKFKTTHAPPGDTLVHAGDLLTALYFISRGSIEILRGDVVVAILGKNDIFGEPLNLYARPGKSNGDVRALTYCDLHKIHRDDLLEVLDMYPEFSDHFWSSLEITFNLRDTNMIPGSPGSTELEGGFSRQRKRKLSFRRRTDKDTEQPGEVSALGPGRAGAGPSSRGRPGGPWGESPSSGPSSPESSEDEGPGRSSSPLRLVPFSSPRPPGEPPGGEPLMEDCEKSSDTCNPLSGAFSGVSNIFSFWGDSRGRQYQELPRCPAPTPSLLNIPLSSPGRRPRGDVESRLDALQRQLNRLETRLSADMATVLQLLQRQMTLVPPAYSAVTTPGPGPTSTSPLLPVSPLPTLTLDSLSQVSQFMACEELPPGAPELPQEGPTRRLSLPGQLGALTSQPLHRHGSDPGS

The IC50 is the concentration that gives 50% inhibition. Consider `C=C[C@H]1CN2CCc3c([nH]c4cccc(OC)c34)[C@@H]2C[C@@H]1/C(=C\OC)C(=O)OC` [Paynantheine], for which the IC50 in test [1] came out at 2.47 µM.

As for `CC[C@H]1CN2CCc3c([nH]c4cccc(OC)c34)[C@@H]2C[C@@H]1/C(=C\OC)C(=O)OC` [Speciogynine], in test [1], it took 1.02 µM to reach half-maximal inhibition (IC50).

In turn, `CC[C@@H]1CN2CCc3c([nH]c4cccc(OC)c34)[C@@H]2C[C@@H]1/C(=C\OC)C(=O)OC` [Mitragynine] registered an IC50 in test [2] of 0.91 µM.

Take `CC[C@@H]1CN2CCc3c([nH]c4cccc(OC)c34)[C@H]2C[C@@H]1/C(=C\OC)C(=O)OC` [Speciociliatine]: the IC50 in test [1] came to 1.48 µM.

The record behind these values is PMC4275233, “Evaluation of the Cardiotoxicity of Mitragynine and Its Analogues Using Human Induced Pluripotent Stem Cell-Derived Cardiomyocytes” (PLoS ONE, 2014).
